Data taken from US6534659B2, “Sufidomaidocarboxylic acids, method for production thereof, and use therefor” (Nippon Shokubai Co., Ltd., priority 2000, dated 2003).

Assays:
[1] = Ability to inhibit corrosion by polarization resistance (Rp), low-carbon steel electrodes (X65); details: Electrode X65
[2] = Ability to inhibit corrosion by polarization resistance (Rp), iron electrodes; parameters: ability to inhibit corrosion: concentration or dose not given beside the values; details: for Ability to inhibit corrosion After 20 min. / Ability to inhibit corrosion After 15 hrs / Ability to inhibit corrosion Peak: Electrode Fe; for ability to inhibit corrosion / Rp: iron electrode, sodium salt

Row | Structure (SMILES) | Ability to inhibit corrosion After 20 min. [1] [%] | Ability to inhibit corrosion After 15 hrs [1] [%] | Ability to inhibit corrosion Peak [1] [%] | Ability to inhibit corrosion After 20 min. [2] [%] | Ability to inhibit corrosion After 15 hrs [2] [%] | Ability to inhibit corrosion Peak [2] [%] | ability to inhibit corrosion ([2]; after the elapse of 20 minutes) [%] | ability to inhibit corrosion ([2]; after the elapse of 15 hours) [%] | ability to inhibit corrosion ([2]; peak) [%] | Rp ([2]; after the elapse of 20 minutes) | Rp ([2]; after the elapse of 15 hours) | Rp ([2]; peak) | ability to inhibit corrosion ([2]; after the elapse of 25 minutes) [%]
1 | CC1(C)SCCN1C(=O)c1ccccc1C(=O)O [Example 1, N-(2-carboxybenzoyl)-2,2-dimethylthiazolidine] | 71.0 | 94.7 | 97.2 | 48 | 96.3 | 98.5 | 47.6 | 96.3 | 98.5 | – | – | – | –
2 | CC1(C)SCCN1C(=O)C=CC(=O)O [Example 2, N-(2-carboxylvinylcarbonyl)-2,2-dimethylthiazolidine] | – | – | – | – | – | – | 55.0 | 95.5 | 98.1 | 200 Ω | 2000 Ω | about 4800 Ω | –
3 | CC1(C)SCCN1C(=O)CCC(=O)O [Example 3, N-(2-carboxylethylcarbonyl)-2,2-dimethylthiazolidine] | – | – | – | 71.4 | 97.8 | 98.1 | – | 97.8 | 98.1 | – | – | – | 71.4
4 | CC1(C)SCCN1C(=O)C1CCCCC1C(=O)O (stereo not drawn) [Example 4, N-(2-carboxylcyclohexylcarbonyl)-2,2-dimethylthiazolidine] | – | – | – | – | – | – | 95.9 | 98.3 | 98.8 | 640 Ω | 5300 Ω | about 7450 Ω | –
